GI50 and TGI data for 7 compounds are collected here from PubChem BioAssay (NCI).

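Growth conditions: 96-well plates. Treatment: test compound, 48 hours, 5 concentrations. Analysis: linear interpolation between bracketing concentrations; unreached endpoints set to highest concentration. At the GI50, growth is halved. At the TGI there is no net growth.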

What all share (test): inhibition of tumour cell growth, NCI panel, 48 h
In assay [1] the test system is UACC-257 melanoma.
Assay [2] deals with MDA-MB-435.
The subject of assay [3] is SNB-75 CNS.
The subject of assay [4] is CCRF-CEM leukemia.
The test system of assay [5] is TK-10 renal.
The test system of assay [6] is DU-145 prostate.
Assay [7] concerns HCT-116 colon.
Assay [8] concerns RXF 393 renal.
Assay [9] has as its system NCI-H460 lung.
In assay [10] the test system is KM12 colon.

With `O=c1[nH]c2ccccc2n2cc3ccccc3c12`, the GI50 in assay [1] was 15.3 µM; in [2], 16300 nM; in assay [3], 13400 nM; in assay [4], 5930 nM; in assay [5] it was 20600 nM; in [6] it was 7610 nM. Further, the GI50 was 2120 nM in assay [7], 6260 nM in assay [8], 7800 nM in assay [9] and 19200 nM in assay [10]. Besides, the TGI in [1] amounted to 33.1 µM; in [2] it was 31 µM; in assay [3], 74.4 µM; in assay [4] it was 60.5 µM; in [5], 36.9 µM; in assay [6], 37.7 µM. For the same compound, the TGI in [7] was 12.3 µM; in assay [8], 29.9 µM; in assay [9], above 100 µM; in assay [10] it was 40 µM.

On to `NCCCNc1nc2ccc(Cl)cc2c2c(=O)c3cc(F)ccc3sc12`, for which the GI50 in [1] is 15.7 µM; in assay [2], 1930 nM; in [3], 4150 nM; in assay [4] it was 2350 nM; in assay [5], 3080 nM; in assay [6] it was 1970 nM. In addition, the GI50 in assay [7] was 1720 nM; in assay [8], 2950 nM; in assay [9], 1730 nM; in assay [10] it was 1770 nM. Also, the TGI amounted to 35.3 µM in assay [1]; 4.2 µM in assay [2]; 19.1 µM in [3]; 6.65 µM in assay [4]; 11.1 µM in assay [5]; 4.05 µM in assay [6]. For the same compound, the TGI in assay [7] stood at 3.12 µM; in assay [8], 12.3 µM; in assay [9], 3.46 µM; in [10] it was 3.43 µM.

Consider `C/C(=N\O)c1cccc(Nc2cc(-c3ccccc3)nc3c(O)cccc23)c1`, for which the GI50 in [1] was 6.28 µM; in assay [2] it was 271 nM; in assay [3] it was 3210 nM; in assay [4], 2130 nM; in [5], 8440 nM; in assay [6] it was 2960 nM. The GI50 was 2410 nM in assay [7], 1620 nM in assay [8], 2490 nM in assay [9] and 836 nM in assay [10]. Also, the TGI was 25.4 µM in [1]; 2.01 µM in [2]; 28.4 µM in assay [3]; above 26.5 µM in assay [4]; 47.7 µM in assay [5]; 16.6 µM in assay [6]. The TGI in assay [7] stood at 15.9 µM; in [8], 6.42 µM; in assay [9], 17.2 µM; in assay [10], 22.9 µM.

Consider `O=[N+]([O-])/C=C/c1cc2ccc3ccccc3c2[nH]1`, for which the TGI in assay [1] turned out to be 6.45 µM; in assay [2], 3.73 µM; in assay [3], 3.87 µM; in [4] it was 2.8 µM; in assay [5], 3.08 µM; in assay [6] it was 3.9 µM. Also, the TGI in assay [7] is 3.43 µM; in [8], 2.96 µM; in assay [9], 5.61 µM; in assay [10] it was 3.99 µM.

As for `Brc1ccc(Nc2nc3ccccc3nc2Nc2ccc(Br)cc2)cc1`, the GI50 is 2.01 µM in [1]; 1510 nM in [2]; 1900 nM in assay [3]; 1010 nM in assay [4]; 1810 nM in [5]; 644 nM in assay [6]. Also, the GI50 in assay [7] was 418 nM; in assay [8] it was 1490 nM; in assay [9], 390 nM; in assay [10], 1400 nM. Moreover, the TGI in [1] was 5.9 µM; in [2], 4.9 µM; in [3] it was 7.04 µM; in [4], 10.7 µM; in [5] it was 6.6 µM; in assay [6] it was 12.4 µM. The TGI in assay [7] came out at 1.65 µM; in assay [8] it was 6.38 µM; in assay [9] it was 2.56 µM; in [10], 8.96 µM.

Take `COc1cc2c3c(n(CCCN4CCCNCC4)c(=O)c2cc1OC)-c1cc2c(cc1C3=O)OCO2`: the GI50 in [1] was 5.85 µM; in [2], 2580 nM; in [3] it was 754 nM; in [4], 72.1 nM; in assay [5], 1350 nM; in assay [6] it was 166 nM. The GI50 in assay [7] was 282 nM; in assay [8], 2530 nM; in assay [9] it was 54.5 nM; in assay [10] it was 1210 nM. Moreover, the TGI in assay [1] is 15.9 µM; in assay [2], 13.7 µM; in assay [3], 7.66 µM; in assay [4], 8.06 µM; in assay [5] it was 7.54 µM; in assay [6], 2.02 µM. The TGI in [7] came out at 2.3 µM; in assay [8], 11.5 µM; in assay [9], 6.47 µM; in assay [10], 5.06 µM.

On to `Cc1cc(C(O)(c2ccc(Nc3ccccc3)cc2)c2ccc(Nc3ccc(S(=O)(=O)O)cc3)cc2)ccc1N` (stereo not given), for which the GI50 was 1.35 µM in [1]; 1280 nM in [2]; 1290 nM in assay [3]; 439 nM in [4]; 1700 nM in [5]; 1320 nM in assay [6]. In addition, the GI50 in assay [7] is 1210 nM; in assay [8], 989 nM; in assay [9], 1320 nM; in assay [10], 1490 nM. For the same compound, the TGI in assay [1] was 3.43 µM; in assay [2], 2.69 µM; in assay [3], 30.9 µM; in assay [4], above 100 µM; in [5], 3.77 µM; in assay [6], 2.67 µM. Also, the TGI came to 2.65 µM in assay [7], 2.28 µM in assay [8], 2.78 µM in assay [9] and 3.28 µM in assay [10].
